In patent US10370333B2 (Sanford Burnham Prebys Medical Discovery Institute, priority 2012, dated 2019):

Each compound was assayed against TNAP (Homo sapiens (Human), UniProt P05186) (assay: TNAP (PPi) inhibition assay, pyrophosphate as substrate).
Type: biochemical
How it was run: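 Secreted epitope-tagged human TNAP from transiently transfected COS-1 cells, dialyzed to remove phosphate. Inhibitors tested kinetically at pH 7.4 with PPi as substrate; released phosphate quantified colorimetrically with Biomol Green reagent.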

`COc1ccc(Br)cc1S(=O)(=O)Nc1ccsc1` [Example V-1, 5-Bromo-2-methoxy-N-(thiophen-3-yl)benzenesulfonamide] and `COc1ccc(Br)cc1S(=O)(=O)Nc1ccnnc1` [Example V-26, 5-Bromo-2-methoxy-N-pyridazin-4-yl-benzenesulfonamide] cannot be ordered by IC50: greater than 1000 nM for the first, greater than 1000 nM for the second.

`COc1ccc(Br)cc1S(=O)(=O)N(CCN(C)C)c1cnc2ccccc2c1` [Example VII-9, 5-Bromo-N-(2-(dimethylamino)ethyl)-2-methoxy-N-(quinolin-3-yl)benzenesulfonamide] and `C#CCN(c1cnc2ccccc2c1)S(=O)(=O)c1cc(Br)ccc1OC` [Example VII-11, 5-Bromo-2-methoxy-N-(prop-2-yn-1-yl)-N-(quinolin-3-yl)benzenesulfonamide] cannot be ordered by IC50: greater than 1000 nM for the first, greater than 1000 nM for the second.

`COc1ccc(Cl)cc1S(=O)(=O)Nc1cncc(-c2cccc(Cl)c2)c1` [Example III-54, 5-Chloro-N-[5-(3-chloro-phenyl)-pyridin-3-yl]-2-methoxy-benzenesulfonamide] and `COc1ccc(OC)c(S(=O)(=O)Nc2cncc(-c3cccc(Cl)c3)c2)c1` [Example III-52, N-[5-(3-Chloro-phenyl)-pyridin-3-yl]-2,5-dimethoxy-benzenesulfonamide] fall in the same range of IC50: 100 to 1000 nM for the first, 100 to 1000 nM for the second.

`COc1ccc(OC)c(S(=O)(=O)N(C)c2cnc3ccccc3c2)c1` [Example VII-12, 2,5-Dimethoxy-N-methyl-N-(quinolin-3-yl)benzenesulfonamide] and `COCCN(c1cnc2ccccc2c1)S(=O)(=O)c1cc(OC)ccc1OC` [Example VII-17, 2,5-Dimethoxy-N-(2-methoxyethyl)-N-(quinolin-3-yl)benzenesulfonamide] cannot be ordered by IC50: greater than 1000 nM for the first, greater than 1000 nM for the second.

Compared with `COc1ccc(OC)c(S(=O)(=O)Nc2ncccn2)c1` [Example V-29, 2,5-Dimethoxy-N-pyrimidin-2-yl-benzenesulfonamide], `COc1ccc(OC)c(S(=O)(=O)Nc2cncc(-c3cscn3)c2)c1` [Example III-85, 2,5-Dimethoxy-N-(5-(thiazol-4-yl)pyridin-3-yl)benzenesulfonamide] is lower in IC50: greater than 1000 nM for the first, less than 100 nM for the second. The second is the more potent here.

`CNC(=O)c1cncc(NS(=O)(=O)c2cc(OC(F)(F)F)ccc2OC)c1` [Example XII-20, 5-(2-Methoxy-5-(trifluoromethoxy)phenylsulfonamido)-N-methylnicotinamide] and `COC(=O)c1cncc(NS(=O)(=O)c2cc(OC(F)(F)F)ccc2OC)c1` [Example XII-15, Methyl 5-(2-methoxy-5-(trifluoromethoxy)phenylsulfonamido)nicotinate] fall in the same range of IC50: 100 to 1000 nM for the first, 100 to 1000 nM for the second.

First: O=S(=O)(Nc1cncc(-c2cccs2)c1)c1cc(Cl)ccc1OC(F)(F)F [Example XI-14, 5-Chloro-N-(5-(thiophen-2-yl)pyridin-3-yl)-2-(trifluoromethoxy)benzenesulfonamide]
Second: O=S(=O)(Nc1cncc(-c2ccc(F)cc2)c1)c1cc(Cl)ccc1OC(F)(F)F [Example XI-8, 5-Chloro-N-(5-(4-fluorophenyl)pyridin-3-yl)-2-(trifluoromethoxy)benzenesulfonamide]
The IC50 of the first is higher: 100 to 1000 nM for the first, less than 100 nM for the second.

`COc1ccc(OC(F)(F)F)cc1S(=O)(=O)Nc1cncc(-c2ccc(F)cc2)c1` [Example XI-10, N-(5-(4-Fluorophenyl)pyridin-3-yl)-2-methoxy-5-(trifluoromethoxy)benzenesulfonamide] and `COc1ccc(Br)cc1S(=O)(=O)Nc1cncc(-c2ccc(C(F)(F)F)cc2)c1` [Example III-14, 5-Bromo-2-methoxy-N-(5-(4-(trifluoromethyl)phenyl)pyridin-3-yl)benzenesulfonamide] fall in the same range of IC50: 100 to 1000 nM for the first, 100 to 1000 nM for the second.

First: COc1ccc(C(N)=O)cc1S(=O)(=O)Nc1cnc2ccccc2c1 [Example II-14, 4-Methoxy-3-(quinolin-3-ylsulfamoyl)-benzamide]
Second: O=S(=O)(Nc1cnc2ccccc2c1)c1cc(Cl)ccc1OC(F)(F)F [Example X-3, 5-Chloro-N-quinolin-3-yl-2-trifluoromethoxy-benzenesulfonamide]
The IC50 of the first is higher: 100 to 1000 nM for the first, less than 100 nM for the second.

`COc1ccc(OC)c(S(=O)(=O)Nc2cncc(-c3ccsc3)c2)c1` [Example III-76, 2,5-Dimethoxy-N-(5-(thiophen-3-yl)pyridin-3-yl)benzenesulfonamide] and `COC(=O)c1ccc(-c2cncc(NS(=O)(=O)c3cc(OC)ccc3OC)c2)cc1` [Example III-28, 4-[5-(2,5-Dimethoxy-benzenesulfonylamino)-pyridin-3-yl]-benzoic Acid methyl ester] cannot be ordered by IC50: less than 100 nM for the first, less than 100 nM for the second.

`COc1ccc(Cl)cc1S(=O)(=O)Nc1cncc(-c2cncs2)c1` [Example III-84, 5-Chloro-2-methoxy-N-(5-(thiazol-5-yl)pyridin-3-yl)benzenesulfonamide] and `COc1ccc(Cl)cc1S(=O)(=O)Nc1cncc(-c2cscn2)c1` [Example III-87, 5-Chloro-2-methoxy-N-(5-(thiazol-4-yl)pyridin-3-yl)benzenesulfonamide] cannot be ordered by IC50: less than 100 nM for the first, less than 100 nM for the second.

`COc1ccc(Br)cc1S(=O)(=O)Nc1cncc(-c2cnccn2)c1` [Example III-95, 5-Bromo-2-methoxy-N-(5-(pyrazin-2-yl)pyridin-3-yl)benzenesulfonamide] and `COc1ccc(Br)cc1S(=O)(=O)Nc1cncc(-c2ccccn2)c1` [Example III-59, N-([2,3′-Bipyridin]-5′-yl)-5-bromo-2-methoxybenzenesulfonamide] cannot be ordered by IC50: less than 100 nM for the first, less than 100 nM for the second.

First: O=S(=O)(Nc1cncc(-c2ncccn2)c1)c1cc(Br)ccc1OC(F)(F)F [Example XI-24, 5-Bromo-N-(5-(pyrimidin-2-yl)pyridin-3-yl)-2-(trifluoromethoxy)benzenesulfonamide]
Second: O=C(O)c1cncc(NS(=O)(=O)c2cc(Br)ccc2OC(F)(F)F)c1 [Example XII-10, 5-(5-Bromo-2-(trifluoromethoxy)phenylsulfonamido)nicotinic acid]
The IC50 of the first is higher: 100 to 1000 nM for the first, less than 100 nM for the second. The second is the more potent here.

`COc1ccc(OC)c(S(=O)(=O)Nc2ccc(N3CCCCC3)nc2)c1` [Example VIII-18, 2,5-Dimethoxy-N-(3,4,5,6-tetrahydro-2H-[1,2′]bipyridinyl-5′-yl)-benzenesulfonamide] and `COc1ccc(Br)cc1S(=O)(=O)Nc1ccc(N2CCN(C)CC2)nc1` [Example VIII-19, 5-Bromo-2-methoxy-N-[6-(4-methyl-piperazin-1-yl)-pyridin-3-yl]-benzenesulfonamide] cannot be ordered by IC50: greater than 1000 nM for the first, greater than 1000 nM for the second.

Compared with `COc1ccc(Br)cc1S(=O)(=O)Nc1cncc(C(=O)Oc2ccccc2)c1` [Example IV-5, Phenyl 5-(5-bromo-2-methoxyphenylsulfonamido)nicotinate], `COc1ccc(Br)cc1S(=O)(=O)Nc1cncc(C(=O)Nc2ccccc2)c1` [Example IV-23, 5-(5-Bromo-2-methoxyphenylsulfonamido)-N-phenylnicotinamide] is higher in IC50: less than 100 nM for the first, 100 to 1000 nM for the second. The first is the more potent here.

`COc1ccc(Cl)cc1S(=O)(=O)Nc1cncc(C(=O)OC2CCCCC2)c1` [Example IV-9, Cyclohexyl 5-(5-chloro-2-methoxyphenylsulfonamido)nicotinate] and `COc1ccc(Br)cc1S(=O)(=O)Nc1cncc(C(=O)OC2CCCCC2)c1` [Example IV-4, Cyclohexyl 5-(5-bromo-2-methoxyphenylsulfonamido)nicotinate] cannot be ordered by IC50: less than 100 nM for the first, less than 100 nM for the second.

First: O=C(NC1CCCCC1)c1cncc(NS(=O)(=O)c2cc(Cl)ccc2OC(F)(F)F)c1 [Example XII-8, 5-(5-Chloro-2-(trifluoromethoxy)phenylsulfonamido)-N-cyclohexylnicotinamide]
Second: O=C(Oc1ccccc1)c1cncc(NS(=O)(=O)c2cc(Cl)ccc2OC(F)(F)F)c1 [Example XII-4, Phenyl 5-(5-chloro-2-(trifluoromethoxy)phenylsulfonamido)nicotinate]
The IC50 of the first is higher: 100 to 1000 nM for the first, less than 100 nM for the second.

`CCCNC(=O)c1cncc(NS(=O)(=O)c2cc(Cl)ccc2OC)c1` [Example IV-29, 5-(5-Chloro-2-methoxyphenylsulfonamido)-N-propylnicotinamide] and `COc1ccc(Cl)cc1S(=O)(=O)Nc1cncc(C(N)=O)c1` [Example IV-26, 5-(5-Chloro-2-methoxyphenylsulfonamido)nicotinamide] cannot be ordered by IC50: less than 100 nM for the first, less than 100 nM for the second.

Compared with `COc1ccc(Br)cc1S(=O)(=O)Nc1cncc(C(=O)N2CCOCC2)c1` [Example IV-24, 5-Bromo-2-methoxy-N-(5-(morpholine-4-carbonyl)pyridin-3-yl)benzenesulfonamide], `CCCOC(=O)c1cncc(NS(=O)(=O)c2cc(Br)ccc2OC)c1` [Example IV-3, Propyl 5-(5-bromo-2-methoxyphenylsulfonamido)nicotinate] is lower in IC50: greater than 1000 nM for the first, less than 100 nM for the second.

Going from `Cc1ccc(OC(F)(F)F)cc1S(=O)(=O)Nc1cnc2ccccc2c1` [Example X-5, 2-methyl-N-quinolin-3-yl-5-trifluoromethoxy-benzenesulfonamide] to `COc1ccc(Br)cc1S(=O)(=O)Nc1cnc2ccc(O)cc2c1` [Example IX-1, 5-Bromo-N-(6-hydroxyquinolin-3-yl)-2-methoxybenzenesulfonamide], the IC50 falls from greater than 1000 nM to less than 100 nM.

Going from `COc1ccc(Br)cc1S(=O)(=O)Nc1nnc(C)s1` [Example V-17, 5-Bromo-2-methoxy-N-(5-methyl-[1,3,4]thiadiazol-2-yl)-benzenesulfonamide] to `COc1ccc(Br)cc1S(=O)(=O)Nc1cncc(-c2nccs2)c1` [Example III-80, 5-Bromo-2-methoxy-N-(5-(thiazol-2-yl)pyridin-3-yl)benzenesulfonamide], the IC50 falls from greater than 1000 nM to less than 100 nM.

Going from `COc1ccc(S(=O)(=O)Nc2cccnc2)cc1Cl` [Example I-12, 3-Chloro-4-methoxy-N-pyridin-3-yl-benzenesulfonamide] to `COc1ccc(Br)cc1S(=O)(=O)Nc1cncc(-c2ccco2)c1` [Example III-68, 5-Bromo-N-(5-(furan-2-yl)pyridin-3-yl)-2-methoxybenzenesulfonamide], the IC50 falls from greater than 1000 nM to less than 100 nM.

`COc1ccc(Br)cc1S(=O)(=O)Nc1cncc(-c2ccoc2)c1` [Example III-71, 5-Bromo-N-(5-(furan-3-yl)pyridin-3-yl)-2-methoxybenzenesulfonamide] and `COc1ccc(-c2cncc(NS(=O)(=O)c3cc(Cl)ccc3OC)c2)c(OC)c1` [Example III-57, 5-Chloro-N-(5-(2,4-dimethoxyphenyl)pyridin-3-yl)-2-methoxybenzenesulfonamide] cannot be ordered by IC50: less than 100 nM for the first, less than 100 nM for the second.
